# Measurements published in patent US11702409B2, “Pyrazolyl derivatives useful as anti-cancer agents” (NOVARTIS AG, priority 2019, dated 2023).
# Biological target: KRasG12C (Homo sapiens (Human), UniProt P01116, G12C)
# Experiment: MS-based assay (% modification for a range of compound concentrations and time points)
# Type: biochemical
# Conditions: internally determined, non-labeled ligand; read-out: (kinact/KI)probe, second order rate constant for modification of KRasG12C
row,kinact/KI [M⁻¹ s⁻¹],SMILES
1,~5000,"C=CC(=O)Nc1ccc(-n2c(C)c(-c3c(C)ccc4[nH]ncc34)c3cccnc32)c(F)c1 [Compound A, N-(3-fluoro-4-(2-methyl-3-(5-methyl-1H-indazol-4-yl)-1H-pyrrolo[2,3-b]pyridin-1-yl)phenyl)acrylamide, reference compound]"

# Biological target: KRasG12C (M1-K169, biotinylated on the N-terminus) (Homo sapiens (Human), UniProt P01116, G12C)
# Experiment: Covalent competition assay (scintillation proximity assay, competition with radiolabeled covalent probe Compound B)
# Type: binding
# Conditions: covalent competition SPA assay, KRASG12C; read-out: IC50, titration of the non-labelled version of the probe
# Outline: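 Biotinylated KRasG12C (M1-K169):GDP incubated 2 h with agitation with serially diluted compounds premixed with a fixed concentration of radiolabeled covalent probe; scintillation proximity read-out of competition for covalent modification. Buffer 20 mM Tris-HCl pH 7.5, 150 mM NaCl, 0.1 mM MgCl2, 0.01% Tween-20. IC50 from 4-parameter fit.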
row,IC50 [nM],SMILES
1,500,"C=CC(=O)Nc1ccc(-n2c(C)c(-c3c(C)ccc4[nH]ncc34)c3cccnc32)c(F)c1 [Compound A, N-(3-fluoro-4-(2-methyl-3-(5-methyl-1H-indazol-4-yl)-1H-pyrrolo[2,3-b]pyridin-1-yl)phenyl)acrylamide, reference compound]"

# Same assay, conditions: in vitro KRASG12C activity; 10 nM KRasG12C:GDP, 25 nM radio-ligand and 475 nM unlabelled ligand, incubated 2 hours; read-out: Covalent Competition Assay IC50
row,IC50 [nM],SMILES
1,1300,"C=CC(=O)N1CC2(CC(n3nc(-c4ccc5nn(CCN6CC[C@H](F)C6)cc5c4)c(-c4c(Cl)c(C)cc5[nH]ncc45)c3C)C2)C1 (single isomer, unassigned) [Example 80a]"
2,8,"C=CC(=O)N1CC2(CC(n3nc(-c4ccc5nn(CCN6CC[C@H](F)C6)cc5c4)c(-c4c(Cl)c(C)cc5[nH]ncc45)c3C)C2)C1 (single isomer, unassigned) [Example 80b]"
3,12,"C=CC(=O)N1CC2(CC(n3nc(-c4ccc5nn(CCN6CC(OC)C6)cc5c4)c(-c4c(Cl)c(C)cc5[nH]ncc45)c3C)C2)C1 (single isomer, unassigned) [Example 82a]"
4,712,"C=CC(=O)N1CC2(CC(n3nc(-c4ccc5nn(CCN6CC(OC)C6)cc5c4)c(-c4c(Cl)c(C)cc5[nH]ncc45)c3C)C2)C1 (single isomer, unassigned) [Example 82b]"
5,18,"C=CC(=O)N1CC2(CC(n3nc(-c4ccc5c(cnn5CCO)c4)c(-c4c(Cl)c(C)cc5[nH]ncc45)c3C)C2)C1 (single isomer, unassigned) [Example 83a, 1-(6-(4-(5-chloro-6-methyl-1H-indazol-4-yl)-3-(1-(2-hydroxyethyl)-1H-indazol-5-yl)-5-methyl-1H-pyrazol-1-yl)-2-azaspiro[3.3]heptan-2-yl)prop-2-en-1-one]"
6,4000,"C=CC(=O)N1CC2(CC(n3nc(-c4ccc5c(cnn5CCO)c4)c(-c4c(Cl)c(C)cc5[nH]ncc45)c3C)C2)C1 (single isomer, unassigned) [Example 83b, 1-(6-(4-(5-chloro-6-methyl-1H-indazol-4-yl)-3-(1-(2-hydroxyethyl)-1H-indazol-5-yl)-5-methyl-1H-pyrazol-1-yl)-2-azaspiro[3.3]heptan-2-yl)prop-2-en-1-one]"
7,536,"C=CC(=O)N1CC2(CC(n3nc(-c4cccnc4C)c(-c4c(Cl)c(C)cc5[nH]ncc45)c3C(F)F)C2)C1 (single isomer, unassigned) [Example 84a, 1-(6-(4-(5-Chloro-6-methyl-1H-indazol-4-yl)-5-(difluoromethyl)-3-(2-methylpyridin-3-yl)-1H-pyrazol-1-yl)-2-azaspiro[3.3]heptan-2-yl)prop-2-en-1-one]"
8,> 50000,"C=CC(=O)N1CC2(CC(n3nc(-c4cccnc4C)c(-c4c(Cl)c(C)cc5[nH]ncc45)c3C(F)F)C2)C1 (single isomer, unassigned) [Example 84b, 1-(6-(4-(5-Chloro-6-methyl-1H-indazol-4-yl)-5-(difluoromethyl)-3-(2-methylpyridin-3-yl)-1H-pyrazol-1-yl)-2-azaspiro[3.3]heptan-2-yl)prop-2-en-1-one]"
9,335,"C=CC(=O)N1CC2(CC(n3nc(-c4cccnc4)c(-c4c(Cl)c(Cl)cc5[nH]ncc45)c3C(F)F)C2)C1 (single isomer, unassigned) [Example 85a]"
10,21600,"C=CC(=O)N1CC2(CC(n3nc(-c4cccnc4)c(-c4c(Cl)c(Cl)cc5[nH]ncc45)c3C(F)F)C2)C1 (single isomer, unassigned) [Example 85b]"
11,1300,"C=CC(=O)N1CC2(CC(n3nc(-c4cncnc4)c(-c4c(Cl)c(Cl)cc5[nH]ncc45)c3C(F)F)C2)C1 (single isomer, unassigned) [Example 86a]"
12,> 50000,"C=CC(=O)N1CC2(CC(n3nc(-c4cncnc4)c(-c4c(Cl)c(Cl)cc5[nH]ncc45)c3C(F)F)C2)C1 (single isomer, unassigned) [Example 86b]"
13,806,"C=CC(=O)N1CC2(CC(n3nc(-c4cccnc4)c(-c4c(Cl)c(C)cc5[nH]ncc45)c3C(F)F)C2)C1 (single isomer, unassigned) [Example 87a]"
14,> 50000,"C=CC(=O)N1CC2(CC(n3nc(-c4cccnc4)c(-c4c(Cl)c(C)cc5[nH]ncc45)c3C(F)F)C2)C1 (single isomer, unassigned) [Example 87b]"
15,2300,"C=CC(=O)N1CC2(CC(n3nc(-c4cccnc4C)c(-c4c(Cl)ccc5[nH]ncc45)c3C)C2)C1 (single isomer, unassigned) [Example 89a]"
16,25500,"C=CC(=O)N1CC2(CC(n3nc(-c4cccnc4C)c(-c4c(Cl)ccc5[nH]ncc45)c3C)C2)C1 (single isomer, unassigned) [Example 89b]"
17,3500,"C=CC(=O)N1CC2(CC(n3nc(-c4cnc(OC)nc4)c(-c4c(Cl)ccc5[nH]ncc45)c3C)C2)C1 (single isomer, unassigned) [Example 90a]"
18,> 50000,"C=CC(=O)N1CC2(CC(n3nc(-c4cnc(OC)nc4)c(-c4c(Cl)ccc5[nH]ncc45)c3C)C2)C1 (single isomer, unassigned) [Example 90b]"
19,5300,"C=CC(=O)N1CC2(CC(n3nc(-c4cccc(=O)n4C)c(-c4c(Cl)ccc5[nH]ncc45)c3C)C2)C1 (single isomer, unassigned) [Example 91a]"
20,25300,"C=CC(=O)N1CC2(CC(n3nc(-c4cccc(=O)n4C)c(-c4c(Cl)ccc5[nH]ncc45)c3C)C2)C1 (single isomer, unassigned) [Example 91b]"
21,1400,"C=CC(=O)N1CC2(CC(n3nc(-c4cc(C)nn4CCN(C)C)c(-c4c(Cl)c(C)cc5[nH]ncc45)c3C)C2)C1 (single isomer, unassigned) [Example 92a]"
22,43000,"C=CC(=O)N1CC2(CC(n3nc(-c4cc(C)nn4CCN(C)C)c(-c4c(Cl)c(C)cc5[nH]ncc45)c3C)C2)C1 (single isomer, unassigned) [Example 92b]"
23,310,C=CC(=O)N1CC2(CC(n3nc(-c4ccc5cn[nH]c5c4)c(-c4c(Cl)c(C)cc5[nH]ncc45)c3C)C2)C1 [Example 14]
24,49,"C=CC(=O)N1CC2(CC(n3nc(-c4ccc(CN5CCCC5=O)cc4)c(-c4c(Cl)c(C)cc5[nH]ncc45)c3C)C2)C1 [Example 48, 1-(4-(1-(2-acryloyl-2-azaspiro[3.3]heptan-6-yl)-4-(5-chloro-6-methyl-1H-indazol-4-yl)-5-methyl-1H-pyrazol-3-yl)benzyl)pyrrolidin-2-one]"
25,320,"C=CC(=O)N1CC2(CC(n3nc(-c4ccc(-n5ccc(N)n5)nc4)c(-c4c(Cl)c(C)cc5[nH]ncc45)c3C)C2)C1 [Example 53, 1-(6-(3-(6-(3-amino-1H-pyrazol-1-yl)pyridin-3-yl)-4-(5-chloro-6-methyl-1H-indazol-4-yl)-5-methyl-1H-pyrazol-1-yl)-2-azaspiro[3.3]heptan-2-yl)prop-2-en-1-one]"
26,216,"C=CC(=O)N1CC2(CC(n3nc(-c4ccc(OC)nc4)c(-c4c(Cl)c(C)cc5[nH]ncc45)c3C)C2)C1 [Example 78a, 1-(6-(4-(5-chloro-6-methyl-1H-indazol-4-yl)-3-(6-methoxypyridin-3-yl)-5-methyl-1H-pyrazol-1-yl)-2-azaspiro[3.3]heptan-2-yl)prop-2-en-1-one]"
27,92,"C=CC(=O)N1CC2(CC(n3nc(-c4ccc(N)nc4)c(-c4c(Cl)c(C)cc5[nH]ncc45)c3C)C2)C1 [Example 79a, 1-(6-(3-(6-aminopyridin-3-yl)-4-(5-chloro-6-methyl-1H-indazol-4-yl)-5-methyl-1H-pyrazol-1-yl)-2-azaspiro[3.3]heptan-2-yl)prop-2-en-1-one]"
28,13500,C=CC(=O)N1CC2(CC(n3nc(-c4cccnc4)c(-c4c(Cl)c(C)cc5[nH]ncc45)c3CC#N)C2)C1 [Example 88]
29,2300,"C=CC(=O)N1CC2(CC(n3nc(-c4ccc5c(cnn5C)c4)c(-c4cc(O)ccc4Cl)c3C)C2)C1 [Example 94, 1-(6-(4-(2-chloro-5-hydroxyphenyl)-5-methyl-3-(1-methyl-1H-indazol-5-yl)-1H-pyrazol-1-yl)-2-azaspiro[3.3]heptan-2-yl)prop-2-en-1-one]"

row,SMILES,IC50 [nM]
1,C=CC(=O)N1CC2(CC(n3nc(-c4cc5cn(C)nc5cn4)c(-c4c(Cl)c(C)cc5[nH]ncc45)c3C)C2)C1 [Example 77],195
